Experimental data published in ChEMBL document CHEMBL5365466, “Discovery of Triazolyl Derivatives of Cucurbitacin B Targeting IGF2BP1 against Non-Small Cell Lung Cancer” (J Med Chem, 2023).

Key:
HCT-116 [1] = assay: Antiproliferative activity against human HCT-116 cells assessed as cell growth inhibition incubated for 72 hrs by SRB assay; format: functional, cell-based; settings: HCT-116, 72 h
[2] = Antiproliferative activity against human L02 cells assessed as cell growth inhibition at 1 uM incubated for 72 hrs by SRB assay; format: toxicity, cell-based
[3] = Antiproliferative activity against human L02 cells assessed as cell growth inhibition incubated for 72 hrs by SRB assay; format: toxicity, cell-based
[4] = Selectivity index, ratio of IC50 for antiproliferative activity against human L02 cells to IC50 for antiproliferative activity against human HCT-116 cells; format: toxicity, cell-based; settings: L02 cells versus HCT-116 cells, read-out: Ratio IC50
HCT-116 [5] = assay: Antiproliferative activity against human HCT-116 cells assessed as cell growth inhibition at 1 uM incubated for 72 hrs by SRB assay; format: functional
HCT-116 [6] = assay: Antiproliferative activity against human HCT-116 cells assessed as cell growth inhibition at 0.1 uM incubated for 72 hrs by SRB assay; format: functional
[7] = Antiproliferative activity against human L02 cells assessed as cell growth inhibition at 0.1 uM incubated for 72 hrs by SRB assay; format: toxicity, cell-based

Row | SMILES | IC50 (HCT-116 [1]) | inhibition at 72 h, 1 µM [2] | IC50 at 72 h [3] | selectivity ratio [4] | inhibition at 1 µM (HCT-116 [5]) | inhibition at 0.1 µM (HCT-116 [6]) | inhibition at 72 h, 0.1 µM [7]
1 | COc1ccc(-n2cnn(CC(=O)O[C@H]3C[C@@H]4C(=CC[C@@H]5[C@@]4(C)C(=O)C[C@]4(C)[C@@H]([C@@](C)(O)C(=O)/C=C/C(C)(C)OC(C)=O)[C@H](O)C[C@@]54C)C(C)(C)C3=O)c2=O)cc1 | 44 nM | 70.8% | 33 nM | 0.75 | 83.3% | 64.3% | 31.4%
2 | CC(=O)OC(C)(C)/C=C/C(=O)[C@](C)(O)[C@H]1[C@H](O)C[C@@]2(C)[C@@H]3CC=C4[C@@H](C[C@H](OC(=O)c5cccnc5)C(=O)C4(C)C)[C@]3(C)C(=O)C[C@]12C |  | 68.3% |  |  | 82.4% | 19.9% | 10.1%
3 | COc1ccc(/C=C/C(=O)O[C@H]2C[C@@H]3C(=CC[C@@H]4[C@@]3(C)C(=O)C[C@]3(C)[C@@H]([C@@](C)(O)C(=O)/C=C/C(C)(C)OC(C)=O)[C@H](OC(=O)/C=C/c5ccc(OC)cc5)C[C@@]43C)C(C)(C)C2=O)cc1 |  | 0.89% |  |  | 2.18% | 0.38% | -2.33%
4 | CC(=O)OC(C)(C)/C=C/C(=O)[C@](C)(O)[C@H]1[C@H](O)C[C@@]2(C)[C@@H]3CC=C4[C@@H](C[C@H](OC(=O)Cn5ncn(-c6ccc(Br)cc6)c5=O)C(=O)C4(C)C)[C@]3(C)C(=O)C[C@]12C | 76 nM | 67.5% | 31 nM | 0.41 | 84.2% | 70.8% | 54.1%
5 | CC(=O)OC(C)(C)/C=C/C(=O)[C@](C)(O)[C@H]1[C@H](OC(=O)/C=C/c2ccc(F)cc2)C[C@@]2(C)[C@@H]3CC=C4[C@@H](C[C@H](O)C(=O)C4(C)C)[C@]3(C)C(=O)C[C@]12C |  | 67% |  |  | 1.19% | 5.23% | 7.68%
6 | CC(=O)OC(C)(C)/C=C/C(=O)[C@](C)(O)[C@H]1[C@H](OC(=O)/C=C/c2ccccc2)C[C@@]2(C)[C@@H]3CC=C4[C@@H](C[C@H](O)C(=O)C4(C)C)[C@]3(C)C(=O)C[C@]12C |  | 13.2% |  |  | 16.5% | 2.73% | 1.86%
7 | CC(=O)OC(C)(C)/C=C/C(=O)[C@](C)(O)[C@H]1[C@H](O)C[C@@]2(C)[C@@H]3CC=C4[C@@H](C[C@H](OC(=O)/C=C/c5ccc(C)cc5)C(=O)C4(C)C)[C@]3(C)C(=O)C[C@]12C |  | 44.1% |  |  | 55.6% | 0.24% | 1.88%
8 | CC(=O)OC(C)(C)/C=C/C(=O)[C@](C)(O)[C@H]1[C@H](O)C[C@@]2(C)[C@@H]3CC=C4[C@@H](C[C@H](OC(=O)/C=C/c5ccccc5)C(=O)C4(C)C)[C@]3(C)C(=O)C[C@]12C |  | 72.7% |  |  | 86.8% | 1.46% | 1.72%
9 | CC(=O)OC(C)(C)/C=C/C(=O)[C@](C)(O)[C@H]1[C@H](O)C[C@@]2(C)[C@@H]3CC=C4[C@@H](C[C@H](OC(=O)c5cccs5)C(=O)C4(C)C)[C@]3(C)C(=O)C[C@]12C |  | 75.2% |  |  | 95.2% | 3.99% | 4.77%
10 | CC(=O)OC(C)(C)/C=C/C(=O)[C@](C)(O)[C@H]1[C@H](O)C[C@@]2(C)[C@@H]3CC=C4[C@@H](C[C@H](OC(=O)c5ccco5)C(=O)C4(C)C)[C@]3(C)C(=O)C[C@]12C |  | 69.2% |  |  | 83.5% | 22.1% | 20%
11 | CC(=O)OC(C)(C)/C=C/C(=O)[C@](C)(O)[C@H]1[C@H](OC(=O)/C=C/c2ccc(C)cc2)C[C@@]2(C)[C@@H]3CC=C4[C@@H](C[C@H](OC(=O)/C=C/c5ccc(C)cc5)C(=O)C4(C)C)[C@]3(C)C(=O)C[C@]12C |  | 8.01% |  |  | 4.21% | 0.65% | -13.3%
12 | COc1ccc(/C=C/C(=O)O[C@@H]2C[C@@]3(C)[C@@H]4CC=C5[C@@H](C[C@H](O)C(=O)C5(C)C)[C@]4(C)C(=O)C[C@]3(C)[C@H]2[C@@](C)(O)C(=O)/C=C/C(C)(C)OC(C)=O)cc1 |  | 47.4% |  |  | 67.3% | 0.47% | -3.17%
13 | CC(=O)OC(C)(C)/C=C/C(=O)[C@](C)(O)[C@H]1[C@H](O)C[C@@]2(C)[C@@H]3CC=C4[C@@H](C[C@H](OC(=O)c5ccccn5)C(=O)C4(C)C)[C@]3(C)C(=O)C[C@]12C | 79 nM | 71.2% | 34 nM | 0.43 | 83.1% | 67.9% | 44.8%
14 | COc1ccc(/C=C/C(=O)O[C@H]2C[C@@H]3C(=CC[C@@H]4[C@@]3(C)C(=O)C[C@]3(C)[C@@H]([C@@](C)(O)C(=O)/C=C/C(C)(C)OC(C)=O)[C@H](O)C[C@@]43C)C(C)(C)C2=O)cc1 |  | 67.3% |  |  | 79.4% | 5.28% | -9.08%
15 | CC(=O)OC(C)(C)/C=C/C(=O)[C@](C)(O)[C@H]1[C@H](OC(=O)/C=C/c2ccccc2)C[C@@]2(C)[C@@H]3CC=C4[C@@H](C[C@H](OC(=O)/C=C/c5ccccc5)C(=O)C4(C)C)[C@]3(C)C(=O)C[C@]12C |  | 11.7% |  |  | 9.26% | 3.56% | 0.97%
16 | CC(=O)OC(C)(C)/C=C/C(=O)[C@](C)(O)[C@H]1[C@H](O)C[C@@]2(C)[C@@H]3CC=C4[C@@H](C[C@H](OC(=O)c5cn(-c6ccc(Br)cc6)nn5)C(=O)C4(C)C)[C@]3(C)C(=O)C[C@]12C |  | 73.6% |  |  | 93% | 15.6% | 0.01%
17 | COc1ccc(-n2cc(C(=O)O[C@H]3C[C@@H]4C(=CC[C@@H]5[C@@]4(C)C(=O)C[C@]4(C)[C@@H]([C@@](C)(O)C(=O)/C=C/C(C)(C)OC(C)=O)[C@H](O)C[C@@]54C)C(C)(C)C3=O)nn2)cc1 |  | 73.1% |  |  | 92.1% | 49.4% | 12.6%
18 | CC(=O)OC(C)(C)/C=C/C(=O)[C@](C)(O)[C@H]1[C@H](O)C[C@@]2(C)[C@@H]3CC=C4[C@@H](C[C@H](OC(=O)/C=C/c5ccc(F)cc5)C(=O)C4(C)C)[C@]3(C)C(=O)C[C@]12C |  | 1.62% |  |  | 87.6% | 1.53% | -3.78%
19 | CC(=O)OC(C)(C)/C=C/C(=O)[C@](C)(O)[C@H]1[C@H](OC(=O)/C=C/c2ccc(F)cc2)C[C@@]2(C)[C@@H]3CC=C4[C@@H](C[C@H](OC(=O)/C=C/c5ccc(F)cc5)C(=O)C4(C)C)[C@]3(C)C(=O)C[C@]12C |  | 6.72% |  |  | 7.98% | 2.07% | -13.1%
20 | CC(=O)OC(C)(C)/C=C/C(=O)[C@](C)(O)[C@H]1[C@H](OC(=O)/C=C/c2ccc(C)cc2)C[C@@]2(C)[C@@H]3CC=C4[C@@H](C[C@H](O)C(=O)C4(C)C)[C@]3(C)C(=O)C[C@]12C |  | 7.53% |  |  | 4.99% | 5.73% | 3.35%
21 | CC(=O)OC(C)(C)/C=C/C(=O)[C@](C)(O)[C@H]1[C@H](O)C[C@@]2(C)[C@@H]3CC=C4[C@@H](C[C@H](OC(=O)c5cn(-c6ccc(Cl)cc6)nn5)C(=O)C4(C)C)[C@]3(C)C(=O)C[C@]12C |  | 72.6% |  |  | 94% | 35.1% | 12.5%
22 | CC(=O)OC(C)(C)/C=C/C(=O)[C@](C)(O)[C@H]1[C@H](O)C[C@@]2(C)[C@@H]3CC=C4[C@@H](C[C@H](OC(=O)c5cn(-c6ccc(C)cc6)nn5)C(=O)C4(C)C)[C@]3(C)C(=O)C[C@]12C |  | 72.4% |  |  | 88.1% | 27.9% | 3.68%
